From publication PMC9653173, “Trotabresib (CC-90010) in combination with adjuvant temozolomide or concomitant temozolomide plus radiotherapy in patients with newly diagnosed glioblastoma” (Neuro-Oncology Advances, 2022)

Columns and labels:
MYC = details: in vitro; ref Bristol Myers Squibb; data on file; cited from earlier work
HEXIM1 mRNA = test: Blood HEXIM1 mRNA pharmacodynamics; format: in vivo, human
Excerpt: (§1) Plasma samples were collected during the first treatment cycle for investigation of trotabresib pharmacokinetics and pharmacodynamics. Plasma pharmacokinetic parameters assessed included peak plasma concentration (Cmax), time to peak plasma concentration (tmax), area under the plasma concentration–time curve (AUC), and terminal half-life (t½). Pharmacodynamic markers assessed included blood levels of CCR1 and HEXIM1 mRNA, which are established markers of BET inhibitor target engagement.[17],[22],[37],[38]

CCR1 mRNA = test: Blood CCR1 mRNA pharmacodynamics; format: in vivo, human
Excerpt: as §1

glioblastoma PDX models = test: Tumor growth inhibition in glioblastoma patient-derived xenograft models; format: in vivo; details: Supplementary Figure S1
Excerpt: Supplementary Figure 1. Trotabresib-mediated tumor growth inhibition in a glioblastoma patient-derived xenograft with and without TMZ. [picture] ^aTMZ given on days 7–9 and 22–24.

## Cn1cc(-c2cc(S(C)(=O)=O)ccc2OCC2CC2)c2ccccc2c1=O [Trotabresib]
MYC
  MYC expression: downregulated in vitro
HEXIM1 mRNA; RP2D 30 mg, cycle 1
  Duration of HEXIM1 mRNA elevation: remained above baseline until 168 h post-dose
HEXIM1 mRNA; RP2D 30 mg, days 3 and 4, adjuvant and concomitant cohorts
  Increase in blood HEXIM1 mRNA expression: 2.5- to 4.0 fold
HEXIM1 mRNA; both cohorts
  HEXIM1 modulation vs dose: increased with trotabresib dose
CCR1 mRNA; RP2D 30 mg, day 4, 2–4 h post-dose, adjuvant and concomitant settings
  Blood CCR1 mRNA expression, lower than at baseline: ≥ 50%
CCR1 mRNA; RP2D 30 mg, post-dose in cycle 1
  Time to return of CCR1 mRNA expression to baseline levels: ≤ 168 h
CCR1 mRNA; trotabresib 15 mg, adjuvant or concomitant cohorts
  Blood CCR1 mRNA modulation: no decrease in CCR1 expression
Glioblastoma PDX models; glioblastoma PDX models
  Effect on antiproliferative effects of TMZ: enhances the antiproliferative effects of TMZ
Glioblastoma PDX models; glioblastoma models
  Antitumor activity as a single agent: has antitumor activity in glioblastoma models as a single agent
